For data set [1], the target named is T1, human His-Plk1 (Homo sapiens, UniProt P53350).
T1 construct: His (N); purchased Sino Biological; host or cells: Sf9
Kind of data set: In vitro Plk1 kinase assay (casein, 32P). The data set is classed as biochemical. Particulars: casein substrate. Here is the method:
Kinase reactions were carried out in two steps. First, Sf9-purified 0.2 µg of human His-Plk1 (Sino Biological) was preincubated in a kinase cocktail [50 mM Tris-Cl (pH 7.5), 10 mM MgCl2, 2 mM dithiothreitol, 2 mM EGTA, and 27 mM p-nitrophenylphosphate] in the presence of either Allopole-A or p-13mer PBIP peptide for 20 min at 25 °C. The samples were then added with 1 µg of dephosphorylated casein (Sigma) and 1.25 µM of ATP (1.25 µCi of [γ^32P] ATP, 1Ci = 37 GBq) and reacted for additional 30 min at 30 °C. The reactions were terminated by the addition of 5× Laemmli SDS sample buffer, separated by 10% SDS-PAGE, and analyzed by autoradiography. To quantify the γ^32P signals, appropriate bands were excised from dried SDS-PAGE gels and analyzed by a liquid scintillation counter (Beckman model LS 6500).

Data set [2] concerns the target T2, Plk3 PBD (PBD3) (Homo sapiens, UniProt Q9H4B4).
T2 construct: MBP-PBD3-His (335–646) (pKM3359) and its A612F (pKM7981); His (C); made in house; host or cells: bacteria (E. coli)
T2 sequence (Q9H4B4 335-646): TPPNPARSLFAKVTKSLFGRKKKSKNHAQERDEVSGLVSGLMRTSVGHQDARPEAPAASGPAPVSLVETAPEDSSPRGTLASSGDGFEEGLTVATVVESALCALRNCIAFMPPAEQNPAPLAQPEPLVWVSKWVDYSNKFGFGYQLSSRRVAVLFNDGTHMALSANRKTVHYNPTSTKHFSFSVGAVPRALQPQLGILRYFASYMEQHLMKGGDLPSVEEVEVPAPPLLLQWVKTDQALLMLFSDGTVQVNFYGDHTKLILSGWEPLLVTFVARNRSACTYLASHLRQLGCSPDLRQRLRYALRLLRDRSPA
Kind of data set: FP-based inhibition assay, PBD3. Particulars: bacterially expressed purified PBD, FITC-ligand 15 nM, PBD at EC85. The data set is classed as binding. Here is the method: FP assays were carried out essentially as described previously ([35], [36]). FITC-conjugated ligands (15 nM) were mixed with PBDs at their EC85 concentrations. All the samples were analyzed approximately 30 min after reaction in a 384-well format using the SpectraMax Paradigm multimode microplate detection platform (Molecular Devices). Data were analyzed after carrying out at least three independent experiments using GraphPad Prism software version 8.

The test system of data set [3] is Plk1 at centrosomes and kinetochores, HeLa cells. Kind of data set: Confocal imaging of Plk1 localization in HeLa cells. The note with it: 10 μM, 2 h. The data set is classed as cell-based. Here is the method:
HeLa cells treated with either control DMSO or on 10 μM of Allopole for 2 h were immunostained using anti-Plk1 (F-8, sc-17783, Santa Cruz Biotechnologies), anti-Cep192 ([63]), and anti-CREST (#15-234, Antibodies Incorporated) antibodies and appropriate secondary antibodies, essentially as described previously ([62]). Samples were additionally stained with 2 µg/mL of Hoechst 33342 to reveal chromosomal morphologies. Images were captured using a Zeiss LSM 780 confocal microscope (Carl Zeiss Microscopy, LLC) equipped with plan-apochromat 40× (N.A. 1.3) and 63× (N.A. 1.4) oil-immersion objective lenses; a 34-channel GaAsP spectral detector; and 12-bit, 0.5-μm z-steps.
Confocal images of unsaturated fluorescence signals were acquired under the same laser intensity at the 12-bit resolution. Fluorescence intensities for identifiable centrosome and kinetochore signals were quantified after the maximum-intensity projection of z-stacks using the Zeiss ZEN v2.1 software (Carl Zeiss Microscopy, LLC). Data were quantified from three independent experiments.

Data set [4] in a line: Solubility in PBS (imaging of insoluble particles, dynamic light scattering). The data set is classed as physicochemical. The note with it: PBS buffer (pH 7.4). As to the method:
All samples were analyzed after adjusting the concentration to 100 μM solution in the PBS buffer (pH 7.4) containing 1% DMSO. The measurements were carried out at 25 °C using the DynaPro NanoStar system (Wyatt Technology). The intensity of the scattered light was measured as a function of time, and the resulting data were used to calculate the size and distribution of the particles in the sample. Collected data were analyzed using the DYNAMICS software to calculate the mean size and polydispersity index of the particles in the sample. At least three repeat measurements were performed to ensure that the results were accurate and reproducible.
Fig. S1. Solubility and activity of Allopole and its related compounds. (A) Images showing insoluble
particles of 200 µM of the indicated compounds dissolved in the PBS buffer. The aggregates of […]

For data set [5], the system named is Flag-Plk1 interactions with p-PBIP1, Bub1, BubR1, Cdc25C. Kind of data set: Coimmunoprecipitation, HeLa cells expressing Flag-Plk1. The data set is classed as cell-based. The note with it: 20 μM for 2 h, nocodazole + okadaic acid. As to the method: For coimmunoprecipitation analyses shown in Figs. 1C and 4F, HeLa cells stably expressing PCMV-Flag-Plk1 WT (pKM3863) (Fig. 1C) and its respective F559D mutant (pKM7979) (Fig. 4F) were generated using a lentiviral expression system. Prior to harvest, the cells were treated with 600 nM of nocodazole and 300 nM of okadaic acid (OA) for 16 h and 1.5 h, respectively, to enrich the level of phosphorylated proteins and additionally treated with either control DMSO or 20 μM of Allopole for 2 h. Immunoprecipitation was carried out essentially as described previously ([49]) in TBSN buffer [20 mM Tris–Cl (pH 8.0), 150 mM NaCl, 0.5% NP-40, 5 mM EGTA, 2 mM MgCl2, 1.5 mM EDTA, 2 mM DTT, 20 mM p-nitrophenyl phosphate (PNPP), and protease inhibitor cocktail (Roche)] using anti-Flag antibody (Sigma-Aldrich). Immunoprecipitates were separated by sodium dodecyl sulfate–polyacrylamide gel electrophoresis (SDS-PAGE) and then immunoblotted according to standard procedures using an enhanced chemiluminescence detection system (Thermo Fisher Scientific). The antibodies that were used to detect specific indicated proteins in Fig. 1C are listed in SI Appendix, Table S6.

SMILES strings stand for the structures.

The values below come from article PMC10629583, “Specific inhibition of an anticancer target, polo-like kinase 1, by allosterically dismantling its mechanism of substrate recognition” (Proceedings of the National Academy of Sciences of the …, 2023).

T1 sequence (P53350 whole entry): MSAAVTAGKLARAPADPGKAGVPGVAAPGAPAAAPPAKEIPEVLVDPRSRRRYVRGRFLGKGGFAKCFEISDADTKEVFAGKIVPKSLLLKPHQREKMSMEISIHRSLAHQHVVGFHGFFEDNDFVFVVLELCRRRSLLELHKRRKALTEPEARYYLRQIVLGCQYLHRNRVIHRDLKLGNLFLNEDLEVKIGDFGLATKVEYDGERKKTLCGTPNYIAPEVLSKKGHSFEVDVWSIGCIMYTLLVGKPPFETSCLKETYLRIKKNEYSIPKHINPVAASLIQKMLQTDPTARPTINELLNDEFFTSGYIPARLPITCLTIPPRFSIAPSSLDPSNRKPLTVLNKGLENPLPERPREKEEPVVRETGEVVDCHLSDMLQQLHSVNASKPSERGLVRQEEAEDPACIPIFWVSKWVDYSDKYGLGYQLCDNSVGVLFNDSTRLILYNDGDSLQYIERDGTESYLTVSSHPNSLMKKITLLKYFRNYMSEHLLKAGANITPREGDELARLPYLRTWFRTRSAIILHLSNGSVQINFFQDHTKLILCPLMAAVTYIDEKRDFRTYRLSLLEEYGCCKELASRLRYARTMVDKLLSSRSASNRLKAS

In the case of `O=c1c2sc(Cl)cc2n2c(=S)[nH]nc2n1CC1CC1` [Allopole-A], the “Effect on His-Plk1 kinase activity in vitro (in words)” value in data set [1] was “significantly inhibited Plk1 activity”. For the same compound, in data set [2], the “PBD3 IC50 ± SD” value is given as “N. S”.

`Cn1cnc([N+](=O)[O-])c1Sc1nnc2n(CC3CC3)c(=O)c3sc(Cl)cc3n12` [Allopole]: in data set [3], the “Plk1 signals localized at centrosomes and kinetochores (in words)” value is “greatly diminished”. In data set [4], the “Solubility (in words)” value is listed as “greatly increased solubility”. Besides, the “Phosphoproteins coprecipitating with Flag-Plk1 (in words)” value in data set [5] is on record as “greatly diminished the amounts of these proteins coprecipitating with Plk1”.
